According to patent US10322132B2, “Prevention or treatment of uratic or gouty diseases” (SHANTON PHARMA CO., LTD., priority 2015, dated 2019):

Assays:
[1] = target: T1, human urate transporter 1 (hURAT1) (Homo sapiens, UniProt Q96S37); test: Uptake of 14C-labeled uric acid in hURAT1 transfected cells; type: cell-based; settings: 14C uric acid uptake, hURAT1-transfected HEK-293T cells, 5 min at 37° C.; read-out: IC50 (μM), inhibition of hURAT1 activity
T1 construct: expressed in transfected cells; host or cells: HEK-293T
T1 sequence (Q96S37 1-553): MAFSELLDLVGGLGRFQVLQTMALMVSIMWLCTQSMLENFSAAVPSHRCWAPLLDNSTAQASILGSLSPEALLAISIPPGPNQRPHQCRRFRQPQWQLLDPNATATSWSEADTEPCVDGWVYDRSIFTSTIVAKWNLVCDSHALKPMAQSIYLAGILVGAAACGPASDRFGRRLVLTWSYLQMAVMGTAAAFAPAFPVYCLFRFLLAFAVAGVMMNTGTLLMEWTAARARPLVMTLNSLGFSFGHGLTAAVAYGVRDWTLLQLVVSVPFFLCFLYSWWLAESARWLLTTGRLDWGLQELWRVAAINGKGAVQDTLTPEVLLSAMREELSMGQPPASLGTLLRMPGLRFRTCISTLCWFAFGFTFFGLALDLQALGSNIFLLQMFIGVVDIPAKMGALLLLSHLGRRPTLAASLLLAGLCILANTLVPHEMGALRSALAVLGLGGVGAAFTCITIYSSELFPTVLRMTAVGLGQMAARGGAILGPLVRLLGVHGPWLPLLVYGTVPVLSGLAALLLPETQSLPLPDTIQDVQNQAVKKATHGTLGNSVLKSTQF
Protocol: The compounds were prepared into the stock solutions (5 mM) with dimethyl sulfoxide (DMSO). This experiment involved 8 concentrations in total. The final concentrations were 5000 nM, 1250 nM, 312.5 nM, 78.1 nM, 19.5 nM, 4.9 nM, 1.2 nM and 0.3 nM, respectively.
Preparation of buffers: chlorine-free HBSS buffer (125 mM sodium gluconate, 4.8 mM potassium gluconate, 1.3 mM calcium gluconate, 1.2 mM KH2PO4, 1.2 mM MgSO4, 5.6 mM glucose, 25 mM 4-hydroxyethylpiperazine ethanesulfonic acid (HEPES) (pH 7.4)); lysis buffer (100 mM NaOH)
Transfected cells stably expressing human urate transporter 1 (hURAT1) were obtained by: placing human embryonic kidney cells (HEK-293T) in a cell culture plate containing complete medium, incubating the cells for 24 h at 37° C. in 5% CO2, rinsing the cells with phosphate buffered saline (PBS) followed by trypsin digestion to prepare a suspension containing single cells; placing 8×10^6 cells a cell culture plate, adding dropwise TransIT-293 Reagent:DNA complexes (1.5 ml of Opti-MEM I Reduced-Serum Medium, 15 g of plasmid DNA, and 45 μL of TransIT-293 Reagent were mixed uniformly and then incubated at room temperature for 30 min) to different areas of the cell culture plate, gently shaking the cell culture plate to homogeneously distribute the TransIT-293 Reagent:DNA complexes, and incubating the cells for 48 h at 37° C. in 5% CO2.
Uptake of ^14C-labeled uric acid in hURAT1 transfected cells: (1) hURAT1-transfected cells were placed in a Poly-D-lysine 96-well microplate at a cell density of 6×10^4/well, and left still overnight at 37° C. in 5% CO2; (2) after the cells were placed in the Poly-D-lysine 96-well microplate for 12 h, the cells were washed for 3 times with 200 μl of pre-heated chlorine-free HBSS buffer per well, and the washing solution in the microplate was removed; (3) 50 μl of uric acid-containing [8-14C] […]

IFNγ = test: ConA-induced IFNγ release; type: in vivo, Male C57BL/6 mice; settings: for inhibition (%): IFN-γ in serum vs model group, 20 mg/kg subcutaneous; for effect on content of IFNγ in the serum of the test mice (in words): compared with the model group; for Content of IFN-γ: serum, 20 mg/kg subcutaneous 30 min before ConA 15 mg/kg tail vein, 3 h after ConA
Protocol: The experiment was conducted by reference to Dalya R. Soondl, Elisa Bjørgo, etc. PI3K p110δ regulates T cell cytokine production during primary and secondary immune responses in mice and humans. Blood. Author manuscript; available in PMC 2013 Mar. 11; and Gabriele Sass, Sonja Heinlein, etc. CYTOKINE EXPRESSION IN THREE MOUSE MODELS OF EXPERIMENTAL HEPATITIS. CYTOKINE, Vol. 19, No. 3 (7 Aug.), 2002: pp 115-120.
The C57BL/6 mice were raised in the SPF-grade animal room for 1 week, and were then randomly divided into the corresponding model group and the administration groups according to the body weight. The […] were administered with ConA by the tail vein injection at a dose of 15 mg/kg 30 min after the administration of the solvent or the test samples by subcutaneous injection at a dose of 20 mg/kg. After the mice were anesthetized with sodium pentobarbital (45 mg/kg by intraperitoneal injection) 3 h after administration of ConA, the blood was collected by cardiac puncture. The blood was placed in the centrifuge tube without anticoagulant and left still at room temperature. One hour later, the blood was centrifuged. The serum was extracted and stored at −80° C. The content of IFNγ (γ-interferon) in the serum was detected by a Mouse IFNγ Elisa

[2] = Pharmacokinetics experiment in cynomolgus monkeys, intravenous; type: in vivo, cynomolgus monkeys (Macaca fascicularis); settings: 5 mg/kg, Mean ± SD, n = 3
Protocol: Three non-naïve cynomolgus monkeys were administered with test compounds A, B and D at a dose of 5 mg/kg by intravenous injection and with test compound C at a dose of 3 mg/kg by intravenous injection, with one compound being tested at a time. Blood was collected from the vein before administration and 1 h, 3 h, 6 h and 24 h after administration, and plasma was isolated. The plasma was analyzed by a 4000 Q Trap LC-MS/MS instrument. The concentrations of the test samples were output by Analyst 1.6.1 from AB Company. The parameters ( ) such as the mean, standard deviation, and coefficient of variation were calculated using Microsoft Excel, wherein the values directly output by Analyst 1.6.1 requires no calculation. PK parameters were calculated using Pharsight Phoenix 6.2 software (NCA model).

[3] = test system: MSU-induced gouty arthritis; test: Pain value in rats with gouty arthritis (electronic Von Frey pain threshold detector); type: in vivo, Male Wistar rats; settings: for Pain value: Example 5, 15 mg/kg subcutaneous, left foot, Von Frey; for effect on pain values in the test rats (in words): Example 5, compared with the model group
Protocol: The rats with gouty arthritis were placed in a metabolic cage, and the palm center of the left foot of each rat was irritated with an electronic Von Frey pain threshold detector. The maximum stress value was recorded when each rat withdrew its foot, and the value was the pain value of that rat.

serum uric acid = test: Uric acid-lowering experiment in cynomolgus monkeys; type: in vivo; parameters: Reduction rate of serum uric acid: concentration or dose not given beside the values; settings: for effect on serum uric acid levels in the test monkeys (in words): compared to the levels measured before administration; for Reduction rate of serum uric acid / Content of serum uric acid: intravenous
Protocol: The experiment was done by reference to Komoriya K, Osada Y, Hasegawa M, Horiuchi H, Kondo S, Couch R C, Griffin T B. Hypouricemic effect of allopurinol and the novel xanthine oxidase inhibitor TEI-6720 in chimpanzees. Eur J Pharmacol. 1993 Dec. 21; 250(3): 455-60.
Each compound was tested in three non-naïve cynomolgus monkeys (1 #, 2 # and 3 #), wherein the monkeys were administered with test samples by intravenous injection. Blood was collected from the vein before administration and 1 h, 3 h, 6 h and 24 h after administration. The blood was left still at room temperature. The serum was collected by centrifugation. The content of uric acid in serum was measured. Reduction rate of serum uric acid=(average uric acid content before administration−average uric acid content after administration)/average uric acid content before administration*100%.

[4] = 3 h after administration vs before administration, animal 1#
[5] = 3 h after administration vs before administration, animal 2#
[6] = 3 h after administration vs before administration, mean
[7] = 3 h after administration, animal 1#
[8] = 3 h after administration, animal 2#

| Compound | IC50 [1] [µM] | inhibition (%) (IFNγ) | effect on content of IFNγ in the serum of the test mice (in words) (IFNγ) | Content of IFN-γ (IFNγ) [pg/mL] | t1/2z [2] [h] | Pain value [3] [g] | effect on pain values in the test rats (in words) [3] | effect on serum uric acid levels in the test monkeys (in words) (serum uric acid) | Reduction rate of serum uric acid (serum uric acid; [4]) [%] | Reduction rate of serum uric acid (serum uric acid; [5]) [%] | Reduction rate of serum uric acid (serum uric acid; [6]) [%] | Content of serum uric acid (serum uric acid; [7]) [µmol/L] | Content of serum uric acid (serum uric acid; [8]) [µmol/L] | Content of serum uric acid (serum uric acid; 3 h after administration, mean) [µmol/L] | further results |
| --- | --- | --- | --- | --- | --- | --- | --- | --- | --- | --- | --- | --- | --- | --- | --- |
| CCCCCn1c(=O)[nH]c(=O)c2[nH]c(Cl)nc21 [Compound A, 8-chloro-3-pentyl-3,7-dihydro-1H-purine-2,6-dione] | 2.52 | 38.3 | significantly reduce | 2025 | 14.55 ± 6.69 | 47.51 | significantly increase | significantly reduce | 18.5 | 38.0 | 22.8 | 61.9 | 57.0 | 59.6 | Reduction rate of serum uric acid (serum uric acid; 3 h after administration vs before administration, animal 3#): 5.98%; Content of serum uric acid (serum uric acid; 3 h after administration, animal 3#): 59.9 µmol/L; Reduction rate of serum uric acid (serum uric acid; 6 h after administration vs before administration, animal 1#): 10.9%; Reduction rate of serum uric acid (serum uric acid; 6 h after administration vs before administration, animal 2#): 48.2%; Reduction rate of serum uric acid (serum uric acid; 6 h after administration vs before administration, animal 3#): 20.9%; Reduction rate of serum uric acid (serum uric acid; 6 h after administration vs before administration, mean): 28.5%; Content of serum uric acid (serum uric acid; 6 h after administration, animal 1#): 67.6 µmol/L; Content of serum uric acid (serum uric acid; 6 h after administration, animal 2#): 47.6 µmol/L; Content of serum uric acid (serum uric acid; 6 h after administration, animal 3#): 50.4 µmol/L; Content of serum uric acid (serum uric acid; 6 h after administration, mean): 55.2 µmol/L |
| CCCCCn1c(=O)n(C)c(=O)c2[nH]c(Cl)nc21 [Compound D, 8-chloro-1-methyl-3-pentyl-3,7-dihydro-1H-purine-2,6-dione] | 0.87 | 35.8 | significantly reduce | 2108 | 5.90 ± 0.42 | 43.10 | significantly increase | significantly reduce | 14.3 | 13.6 | 13.9 | 49.6 | 47.1 | 48.4 |  |
